Experimental data as given in US8163771B2, “11 β-HSD1 modulators” (Exelixis, Inc., priority 2008, dated 2012).
pIC50: −log10 of the molar value.

These compounds were tested against T1, recombinant human 11 β-HSD1 (Homo sapiens, UniProt P28845) (assay: 11 β-HSD1 SPA Assay (Scintillation Proximity Assay)).
T1 construct: made in house; host or cells: E. coli
Format: biochemical
Summary of the method: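 Scintillation proximity read-out of cortisol formed from 40 nM [3H]cortisone by purified recombinant human enzyme (30-100 nM, E. coli) with 1 mM NADPH, pH7.4, 2 hours at room temperature; beads with cortisol antibody and glycyrrhetinic acid stop the reaction, read next day. IC50 derived from inhibition normalised to background and maximal wells.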

T1 sequence (P28845 whole entry): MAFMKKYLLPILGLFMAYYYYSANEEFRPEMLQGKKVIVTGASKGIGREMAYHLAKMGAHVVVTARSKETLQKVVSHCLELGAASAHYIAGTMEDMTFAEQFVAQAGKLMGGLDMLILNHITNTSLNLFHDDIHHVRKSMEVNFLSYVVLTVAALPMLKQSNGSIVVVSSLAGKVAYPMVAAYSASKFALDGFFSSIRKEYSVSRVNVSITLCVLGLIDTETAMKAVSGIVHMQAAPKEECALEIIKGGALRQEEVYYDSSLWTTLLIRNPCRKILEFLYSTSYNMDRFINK

`Cc1ccc(C2(C(=O)N[C@H]3C[C@H]4CC[C@@H](C3)N4c3ccc(C(=O)NC4CC4)cn3)CC2)cc1` [Example 23, N-cyclopropyl-6-[3-endo-({[1-(4-methylphenyl)cyclopropyl]carbonyl}amino)-8-azabicyclo[3.2.1]oct-8-yl]pyridine-3-carboxamide] and `O=C(NC1CC1)c1ccc(N2[C@@H]3CC[C@H]2C[C@@H](NC(=O)C2(c4ccc(Cl)cc4)CCC2)C3)nc1` [Example 50, 6-[3-endo-({[1-(4-chlorophenyl)cyclobutyl]carbonyl}amino)-8-azabicyclo[3.2.1]oct-8-yl]-N-cyclopropylpyridine-3-carboxamide] cannot be ordered by pIC50: greater than 6.70 for the first, greater than 6.70 for the second.

`CC(C)(Oc1ccc(F)cc1F)C(=O)N[C@H]1C[C@H]2CC[C@@H](C1)N2c1ccc(S(N)(=O)=O)cn1` [Example 294, N-{8-[5-(aminosulfonyl)pyridin-2-yl]-8-azabicyclo[3.2.1]oct-3-endo-yl}-2-[(2,4-difluorophenyl)oxy]-2-methylpropanamide] and `CC(C)(Oc1ccc(F)cc1C(F)(F)F)C(=O)N[C@H]1C[C@H]2CC[C@@H](C1)N2c1ccc(S(C)(=O)=O)nc1` [Example 288, 2-{[4-fluoro-2-(trifluoromethyl)phenyl]oxy}-2-methyl-N-{8-[6-(methylsulfonyl)pyridin-3-yl]-8-azabicyclo[3.2.1]oct-3-endo-yl}propanamide] cannot be ordered by pIC50: greater than 6.70 for the first, greater than 5.70 for the second.

`CC(C)(Oc1ncc(Cl)cc1Cl)C(=O)N[C@H]1C[C@H]2CC[C@@H](C1)N2c1ncc(C(=O)NCC(F)(F)F)cc1F` [Example 161, 6-[3-endo-({2-[(3,5-dichloropyridin-2-yl)oxy]-2-methylpropanoyl}amino)-8-azabicyclo[3.2.1]oct-8-yl]-5-fluoro-N-(2,2,2-trifluoroethyl)pyridine-3-carboxamide] and `CC(C)(Oc1ccc(Cl)cc1Cl)C(=O)N[C@H]1C[C@H]2CC[C@@H](C1)N2c1ccc(C(=O)NCC(F)(F)F)cc1Cl` [Example 117, 3-chloro-4-[3-endo-({2-[(2,4-dichlorophenyl)oxy]-2-methylpropanoyl}amino)-8-azabicyclo[3.2.1]oct-8-yl]-N-(2,2,2-trifluoroethyl)benzamide] cannot be ordered by pIC50: greater than 6.70 for the first, greater than 6.70 for the second.

`CC(C)(Oc1ccc(Cl)cc1)C(=O)N[C@H]1C[C@H]2CC[C@@H](C1)N2c1ccc(S(C)(=O)=O)cc1` [Example 203, 2-[(4-chlorophenyl)oxy]-2-methyl-N-{8-[4-(methylsulfonyl)phenyl]-8-azabicyclo[3.2.1]oct-3-endo-yl}propanamide] and `CC(C)(Oc1ncc(C(F)(F)F)cc1Cl)C(=O)N[C@H]1C[C@H]2CC[C@@H](C1)N2c1ccc(S(C)(=O)=O)cc1` [Example 249, 2-{[3-chloro-5-(trifluoromethyl)pyridin-2-yl]oxy}-2-methyl-N-{8-[4-(methylsulfonyl)phenyl]-8-azabicyclo[3.2.1]oct-3-endo-yl}propanamide] cannot be ordered by pIC50: greater than 5.70 for the first, greater than 5.70 for the second.

`CS(=O)(=O)Nc1ccc(N2[C@@H]3CC[C@H]2C[C@@H](NC(=O)C2(c4ccc(Cl)cc4)CC2)C3)nc1` [Example 60, 1-(4-chlorophenyl)-N-(8-{5-[(methylsulfonyl)amino]pyridin-2-yl}-8-azabicyclo[3.2.1]oct-3-endo-yl)cyclopropanecarboxamide] and `NC(=O)c1ccc(N2[C@@H]3CC[C@H]2C[C@@H](NC(=O)C2(c4cccc(F)c4)CC2)C3)nc1` [Example 104, 6-[3-endo-({[1-(3-fluorophenyl)cyclopropyl]carbonyl}amino)-8-azabicyclo[3.2.1]oct-8-yl]pyridine-3-carboxamide] cannot be ordered by pIC50: greater than 6.70 for the first, greater than 6.70 for the second.

`C[C@H](NC(=O)c1ccc(N2C3CCC2CC(NC(=O)C(C)(C)Oc2cc(F)c(F)cc2Cl)C3)nc1)C(F)(F)F` (stereo partly drawn) [Example 430, 6-(3-endo-{[2-(2-chloro-4,5-difluorophenoxy)-2-methylpropanoyl]amino}-8-azabicyclo[3.2.1]oct-8-yl)-N-[(2S)-1,1,1-trifluoropropan-2-yl]pyridine-3-carboxamide] and `C[C@H](NC(=O)c1ccc(N2C3CCC2CC(NC(=O)C(C)(C)Oc2ccc(Cl)cc2F)C3)nc1)C(F)(F)F` (stereo partly drawn) [Example 435, 6-(3-endo-{[2-(4-chloro-2-fluorophenoxy)-2-methylpropanoyl]amino}-8-azabicyclo[3.2.1]oct-8-yl)-N-[(2S)-1,1,1-trifluoropropan-2-yl]pyridine-3-carboxamide] cannot be ordered by pIC50: greater than 6.70 for the first, greater than 6.70 for the second.

`O=C(NCC(F)(F)F)c1ccc(N2[C@@H]3CC[C@H]2C[C@@H](NC(=O)C2(c4cccc(F)c4)CC2)C3)nc1` [Example 123, 6-[3-endo-({[1-(3-fluorophenyl)cyclopropyl]carbonyl}amino)-8-azabicyclo[3.2.1]oct-8-yl]-N-(2,2,2-trifluoroethyl)pyridine-3-carboxamide] and `CC(C)(Oc1ccc(C(F)(F)F)cn1)C(=O)N[C@H]1C[C@H]2CC[C@@H](C1)N2c1ccc(C(=O)NCC(F)(F)F)cn1` [Example 152, 6-{3-endo-[(2-methyl-2-{[5-(trifluoromethyl)pyridin-2-yl]oxy}propanoyl)amino]-8-azabicyclo[3.2.1]oct-8-yl}-N-(2,2,2-trifluoroethyl)pyridine-3-carboxamide] cannot be ordered by pIC50: greater than 6.70 for the first, greater than 5.70 for the second.

`CC(C)(Oc1ccc(Cl)cc1Cl)C(=O)N[C@H]1C[C@H]2CC[C@@H](C1)N2C(=O)c1ccc(C(N)=O)cc1` [Example 279, 4-{[3-endo-({2-[(2,4-dichlorophenyl)oxy]-2-methylpropanoyl}amino)-8-azabicyclo[3.2.1]oct-8-yl]carbonyl}benzamide] and `CC(C)(Oc1ccc(Cl)cc1Cl)C(=O)N[C@H]1C[C@H]2CC[C@@H](C1)N2c1ccc(C(=O)NCCO)cn1` [Example 367, 6-(3-endo-{[2-(2,4-dichlorophenoxy)-2-methylpropanoyl]amino}-8-azabicyclo[3.2.1]oct-8-yl)-N-(2-hydroxyethyl)pyridine-3-carboxamide] cannot be ordered by pIC50: greater than 5.70 for the first, greater than 6.70 for the second.

`CC(C)NC(=O)c1ccc(N2[C@@H]3CC[C@H]2C[C@@H](NC(=O)C(C)(C)Oc2ccc(Cl)cc2C(F)(F)F)C3)nc1` [Example 370, 6-[3-endo-({2-[4-chloro-2-(trifluoromethyl)phenoxy]-2-methylpropanoyl}amino)-8-azabicyclo[3.2.1]oct-8-yl]-N-(propan-2-yl)pyridine-3-carboxamide] and `C[C@H](NC(=O)c1ccc(N2C3CCC2CC(NC(=O)C(C)(C)Oc2ccc(Cl)cc2OC(F)(F)F)C3)nc1)C(F)(F)F` (stereo partly drawn) [Example 410, 6-(3-endo-(2-(4-chloro-2-(trifluoromethoxy)phenoxy)-2-methylpropanamido)-8-azabicyclo[3.2.1]octan-8-yl)-N-((S)-1,1,1-trifluoropropan-2-yl)nicotinamide] cannot be ordered by pIC50: greater than 6.70 for the first, greater than 6.70 for the second.

`CC(C)(Oc1ccc(C(C)(C)O)cc1Cl)C(=O)N[C@H]1C[C@H]2CC[C@@H](C1)N2c1ccc(C(=O)NCC(F)F)cn1` [Example 471, 6-[3-endo-({2-[2-chloro-4-(2-hydroxypropan-2-yl)phenoxy]-2-methylpropanoyl}amino)-8-azabicyclo[3.2.1]oct-8-yl]-N-(2,2-difluoroethyl)pyridine-3-carboxamide] and `CC(C)(Oc1cc(F)c(C(C)(C)O)cc1Cl)C(=O)N[C@H]1C[C@H]2CC[C@@H](C1)N2c1ccc(C(=O)NCC(F)F)cn1` [Example 304, 6-[3-endo-({2-[2-chloro-5-fluoro-4-(2-hydroxypropan-2-yl)phenoxy]-2-methylpropanoyl}amino)-8-azabicyclo[3.2.1]oct-8-yl]-N-(2,2-difluoroethyl)pyridine-3-carboxamide] cannot be ordered by pIC50: greater than 6.70 for the first, greater than 6.70 for the second.

`O=C(NC1CC1)c1ccc(N2[C@@H]3CC[C@H]2C[C@@H](NC(=O)C2(c4ccc(Cl)cc4)CC2)C3)cc1F` [Example 119, 4-[3-endo-({[1-(4-chlorophenyl)cyclopropyl]carbonyl}amino)-8-azabicyclo[3.2.1]oct-8-yl]-N-cyclopropyl-2-fluorobenzamide] and `COc1ccc(OC(C)(C)C(=O)N[C@H]2C[C@H]3CC[C@@H](C2)N3c2ccc(C(=O)NC3CC3)cn2)cc1` [Example 44, N-cyclopropyl-6-{3-endo-[(2-methyl-2-{[4-(methyloxy)phenyl]oxy}pro-panoyl)amino]-8-azabicyclo[3.2.1]oct-8-yl}pyridine-3-carboxamide] cannot be ordered by pIC50: greater than 6.70 for the first, greater than 6.70 for the second.

`CC(C)(Oc1ccccc1C(F)(F)F)C(=O)N[C@H]1C[C@H]2CC[C@@H](C1)N2c1ccc(C(N)=O)cn1` [Example 164, 6-{3-endo-[(2-methyl-2-{[2-(trifluoromethyl)phenyl]oxy}propanoyl)amino]-8-azabicyclo[3.2.1]oct-8-yl}pyridine-3-carboxamide] and `CC(C)c1cc(Cl)ccc1OC(C)(C)C(=O)N[C@H]1C[C@H]2CC[C@@H](C1)N2c1ccc(C(N)=O)cn1` [Example 331, 6-{3-endo-[(2-{[4-chloro-2-(1-methylethyl)phenyl]oxy}-2-methylpropanoyl)amino]-8-azabicyclo[3.2.1]oct-8-yl}pyridine-3-carboxamide] cannot be ordered by pIC50: greater than 6.70 for the first, greater than 6.70 for the second.

`CC(C)(Oc1ccc(Cl)cc1Cl)C(=O)NC1CC2CCC(C1)N2c1ccc(C(=O)NCC(N2CCOCC2)C(F)(F)F)cn1` (stereo not drawn) [Example 470, 6-(3-endo-{[2-(2,4-dichlorophenoxy)-2-methylpropanoyl]amino}-8-azabicyclo[3.2.1]oct-8-yl)-N-[3,3,3-trifluoro-2-(morpholin-4-yl)propyl]pyridine-3-carboxamide] and `CC(C)(Oc1ccc(Cl)cc1C(F)F)C(=O)NC1CC2CCC(C1)N2c1ccc(C(=O)NC2CC2(F)F)cn1` (stereo not drawn) [Example 393, 6-[3-endo-({2-[4-chloro-2-(difluoromethyl)phenoxy]-2-methylpropanoyl}amino)-8-azabicyclo[3.2.1]oct-8-yl]-N-(2,2-difluorocyclopropyl)pyridine-3-carboxamide] cannot be ordered by pIC50: greater than 6.70 for the first, greater than 6.70 for the second.

`CC(C)(Oc1ccc(F)cc1Cl)C(=O)N[C@H]1C[C@H]2CC[C@@H](C1)N2c1ccc(-c2nc(C(F)(F)F)n[nH]2)cn1` [Example 330, 2-[(2-chloro-4-fluorophenyl)oxy]-2-methyl-N-(8-{5-[3-(trifluoromethyl)-1H-1,2,4-triazol-5-yl]pyridin-2-yl}-8-azabicyclo[3.2.1]oct-3-endo-yl)propanamide] was tested, and the pIC50 was greater than 5.70.
